Measurements taken from patent US5185377A, “Diphenyl compounds which inhibit arachidonic acid metabolism, and their use in pharmaceutical compositions” (Ciba-Geigy Corporation, priority 1990, dated 1993).
Where two headings read alike, the source gives them in different places.

What was measured:
[1] = tested on: isolated lung parenchyma strips; experiment: Arachidonic acid-induced contraction of isolated lung parenchyma strips; format: cell-based, guinea-pig; settings: for inhibition at 50 µM: 5×10^-5 M
Method: (§1) Testing of antiasthmatic active qualities of triclosan and fenticlor in vitro is carried out on isolated tracheal spirals and lung parenchyma strips of adult guinea-pigs (250-500 g) of both sexes. The tracheal spirals are prepared by the method described by Constantine [J. W. Constantine et al., J. Pharm. Pharmacol. 17, 384 (1965)]. Particular emphasis is placed on complete removal of the surrounding connective tissue and on maintaining the integrity of the epithelium [N. A. Flavahan et al., J. Appl. Physiol. 58, 834 (1985)].
(§2) The lung parenchyma strip is prepared in accordance with the method described by Del Monte [L. Del Monte et a., Naunym-Schmiedebergs Arch. Pharmacol., 338, 417 (1988)]. The contraction of the isolated organs is determined as isotonic measurement of the path under standardised conditions [J. Slapke et al., Biomed. Biochim. Acta 42, 1309 (1983)] in a multiple organ bath.
(§3) A modified Krebs-Henseleit solution (pH=7.4) of the following composition is used for the studies (m×mol 1^-1): NaCl 134.8, KCl 5.9, Tris 10.02, CaCl2 1.82, MgCl2 1.145, glucose 1.11. Air is used for gassing. The bath temperature is 37° C. for the lung parenchyma strips and 35° C. for the tracheal spirals. Conditioning of the preparations is performed several times with 5×10^-4 M acetylcholine to obtain the standardisation value, this substance subsequently being flushed out. In all studies, the contractions are induced by addition of arachidonic acid to the organ bath in increasing concentrations and are measured cumulatively. All the measurements are made in the present of 5 μM indomethacin.

[2] = tested on: ovalbumin-induced bronchoconstriction; experiment: Ovalbumin-induced bronchoconstriction in the ovalbumin-sensitised guinea-pig; format: in vivo
Method: Guinea-pigs are sensitised i.p. with 10 μg of ovalbumin and 100 mg of aluminium hydroxide in 0.5 ml of isotonic saline solution by the method of Anderson [P. Anderson, Brit. J. Pharmacol. 77, 301 (1982)]. After 14 days, the conscious animals are given a booster by inhalation of a 0.1% strength atomised ovalbumin solution. Only animals with a positive reaction are used for comparison from the fourth day after the booster. Guinea-pigs with a body weight of 450-550 g are were anaesthetised with 1.3 g/kg of ethylurethane i.p. Thereafter, a cannula is connected to the trachea. The animals are relaxed with 0.2 mg/kg pancuronium bromide i.v. and respirated in a tank respirator (f=20/min, p.=3 pPa, I:E=1:1). The animals breath in air from the room by the tracheal cannula led to the outside. The tidal volume VT is measured pneumota- chographically. 1 mg/kg of ovalbumin in 300 μl of water is instilled intratracheally to induce the spasm [G. Becher et al., Z. Erkrankg., Arm.-org. 166, 223 (1986)].
Statistical analysis of the results is carried out with the parameter-free U-test according to Mann and Whitney, p.≤0.05.

[3] = tested on: arachidonic acid-induced bronchoconstriction; experiment: Arachidonic acid-induced bronchoconstriction in the guinea-pig; format: in vivo
Method: A bronchospasm is induced in non-sensitised guinea-pigs in the same experimental design as in Example 2 by intratracheal instillation of 2 mg/kg of Na arachidonate solution in phosphate buffer pH=7.4 [G. Becher et al., Z. Erkrankg. Atm.-org. 171, 85 (1988)].

15-lipoxygenase = target: T1, 15-lipoxygenase (Oryctolagus cuniculus, UniProt P12530); experiment: Inhibition of the activity of 15-lipoxygenase from rabbit reticulocytes; format: biochemical
T1 construct: The lipoxygenase from rabbit reticulocytes is obtained in an electrophoretically and immunologically pure form; from tissue; host or cells: rabbit reticulocytes
T1 sequence (P12530 1-663): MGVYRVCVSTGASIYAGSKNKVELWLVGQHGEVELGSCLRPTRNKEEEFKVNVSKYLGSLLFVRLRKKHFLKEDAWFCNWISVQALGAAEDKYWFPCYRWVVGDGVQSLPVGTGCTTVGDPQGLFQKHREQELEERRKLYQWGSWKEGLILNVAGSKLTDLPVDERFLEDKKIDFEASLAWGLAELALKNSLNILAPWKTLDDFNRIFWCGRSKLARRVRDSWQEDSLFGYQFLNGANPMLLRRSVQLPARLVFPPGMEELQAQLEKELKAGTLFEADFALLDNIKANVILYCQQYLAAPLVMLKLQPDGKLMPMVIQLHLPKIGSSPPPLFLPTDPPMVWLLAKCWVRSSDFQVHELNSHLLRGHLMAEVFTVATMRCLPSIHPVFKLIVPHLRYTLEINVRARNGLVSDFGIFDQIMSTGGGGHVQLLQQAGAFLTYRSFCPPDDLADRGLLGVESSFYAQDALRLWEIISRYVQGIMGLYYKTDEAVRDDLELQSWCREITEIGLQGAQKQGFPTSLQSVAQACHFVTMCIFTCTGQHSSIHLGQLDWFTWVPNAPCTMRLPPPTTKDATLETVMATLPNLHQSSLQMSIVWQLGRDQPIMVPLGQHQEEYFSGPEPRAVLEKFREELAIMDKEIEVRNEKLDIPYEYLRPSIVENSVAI
Method: The lipoxygenase from rabbit reticulocytes is obtained in an electrophoretically and immunologically pure form by the method described in the literature [S. M. Rapoport et al., Eur. J. Biochem. 96, 545 (1979]. The lipoxygenase activity is determined at 25° C. via amperometric measurement of the O2 consumption by means of a Clark electrode in the following system: 0.1 M potassium phosphate pH 7.4 containing 0.2% of sodium cholate and 0.53 mM linoleic acid. The enzyme concentration in the measurement bath is 25 nM. The substances to be tested are added as a solution in methylglycol (freshly distilled). […] The enzyme reaction is started by addition of sodium cholate and linoleic acid. The titration curve of the inhibition and from this the concentration needed for 50% inhibition are determined by varying the active ingredient concentration.

prostaglandin H synthase = target: T2, prostaglandin H synthase (Ovis aries, UniProt P05979); experiment: Inhibition of the activity of prostaglandin H synthase from sheep seminal vesicles; format: biochemical
T2 construct: H synthase from sheep seminal vesicles is obtained by the method described in the literature; from tissue; host or cells: sheep seminal vesicles
T2 sequence (P05979 25-600): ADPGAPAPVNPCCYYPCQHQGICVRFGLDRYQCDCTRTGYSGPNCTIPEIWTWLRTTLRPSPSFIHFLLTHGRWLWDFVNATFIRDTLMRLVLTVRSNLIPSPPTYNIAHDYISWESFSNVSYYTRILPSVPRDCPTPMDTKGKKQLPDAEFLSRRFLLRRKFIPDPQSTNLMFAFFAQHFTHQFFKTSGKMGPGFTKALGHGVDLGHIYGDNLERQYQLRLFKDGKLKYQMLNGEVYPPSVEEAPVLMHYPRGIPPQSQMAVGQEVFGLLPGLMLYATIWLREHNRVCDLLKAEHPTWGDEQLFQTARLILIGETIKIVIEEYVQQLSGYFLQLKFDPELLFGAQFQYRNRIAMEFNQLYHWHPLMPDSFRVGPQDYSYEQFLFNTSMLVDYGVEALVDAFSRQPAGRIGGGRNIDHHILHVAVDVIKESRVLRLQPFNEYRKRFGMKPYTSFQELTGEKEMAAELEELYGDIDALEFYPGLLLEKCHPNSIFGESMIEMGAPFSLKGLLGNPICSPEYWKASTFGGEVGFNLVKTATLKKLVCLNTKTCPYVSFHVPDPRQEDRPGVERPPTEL
Method: Prostaglanding H synthase from sheep seminal vesicles is obtained by the method described in the literature by Van der Oudaraa, F. J. G.; Buytenhek, M.; Methods Enzymol. 86, 60 (1982).
The enzyme activity is determined at 25° C. by polargraphic measurement of the oxygen consumption with a Clark electrode.
The measurement batch consists of […] ml^-1 of prostaglandin H synthase in 0.1 M Tris-HCl buffer pH=8.0, 5 mM tryptophan, 1 μM haemin and 0.124 mM arachidonic acid. The substances to be tested are dissolved in methylglycol and incubated with the enzyme in the absence of arachidonic acid for 10 minutes at 25° C. The enzyme reaction is started with arachidonic acid.
The titration curve of the inhibition and from this the concentration needed for 50% inhibition are determined by varying the active ingredient concentration.

[4] = literature statement; G. B. Kasting et al. cited for the non-steroidal drugs; cited from earlier work
[5] = tested on: isolated tracheal spirals; experiment: Arachidonic acid-induced contraction of isolated tracheal spirals; format: cell-based, guinea-pig; settings: Cavia porcellus, average, 35° C., 5 μM indomethacin present, read-out: ED50 (concentration-related contraction)
Method: as §1, §2
as §3, with “Conditioning of the preparations is performed several times with 5×10^-4 M acetylcholine to obtain the standardisation value, this substance subsequently being flushed out.” left out, “All the measurements are made in the present of 5 μM indomethacin.” left out

[6] = 100 mg/kg p.o. 2 hours before, ovalbumin 1 mg/kg intratracheally
[7] = 100 mg/kg p.o. 2 hours before, Na arachidonate 2 mg/kg intratracheally
[8] = Cavia porcellus, 5 μM indomethacin

| Compound | IC50 (15-lipoxygenase) | IC50 (prostaglandin H synthase) | other results |
| --- | --- | --- | --- |
| Oc1ccc(Cl)cc1Sc1cc(Cl)ccc1O [fenticlor, 2,2'-dihydroxy-5,5'-dichloro-diphenyl sulfide] | 1.4 µM | 15.5 µM | IC50 ([1]; Cavia porcellus, read-out: ID50): 5 µM; inhibition of the maximum bronchospasm [2, 6]: 60%; time to return to the starting volume (tidal volume) [2, 6]: 25 min; reduction of the allergic reaction (bronchoconstriction) ([2]; fenticlor 100 mg/kg p.o. 2 hours before, in comparison with controls, p≤0.05): reduced significantly; inhibition of the maximum bronchospasm [3, 7]: 16.5%; time to return to the starting volume (tidal volume) [3, 7]: 25 min; inhibition of the arachidonic acid-induced bronchoconstrictive reaction ([3]; fenticlor 100 mg/kg p.o. 2 hours before, U-test p≤0.05): inhibited significantly (parameter-free U-test according to Mann and Whitney, p≤0.05) from the fifth minute |
| Oc1c(Cl)cc(Cl)cc1Cc1cc(Cl)cc(Cl)c1O [2,2'-Dihydroxy-3,3',5,5'-tetrachloro-diphenylmethane] | – | – | IC50 (15-lipoxygenase; 25° C., pH 7.4, 0.53 mM linoleic acid, enzyme 25 nM, read-out: 15-LOX IC50): 9.5 µM; IC50 (prostaglandin H synthase; 25° C., pH=8.0, 0.124 mM arachidonic acid, 10 minutes preincubation, read-out: PG H synthase IC50): 60 µM |
| CC(Cc1ccc(O)c(O)c1)C(C)Cc1ccc(O)c(O)c1 (centres unmarked) [nordihydroguarjiaretic acid] | – | – | inhibition at 50 µM [1, 8]: 50% |
| Cc1cc(Cc2ccccc2)cc(Cl)c1O [2-Chloro-6-methyl-4-benzylphenol] | 28 µM | 35 µM | – |
| Oc1c(Cl)cc(Cc2cc(Cl)c(O)c(Br)c2)cc1Br [4,4'-Dihydroxy-3,3'-dibromo-5,5'-dichloro-diphenylmethane] | 10.5 µM | 180 µM | – |
| Oc1ccc(Cl)cc1Cc1ccccc1 [chlorophene, 2-Benzyl-4-chlorophenol] | 2 µM | 40 µM | – |
| COc1ccc2c(c1)c(CC(=O)O)c(C)n2C(=O)c1ccc(Cl)cc1 [indomethacin] | – | – | skin penetration [4]: inadequate skin penetration |
| Oc1c(Br)cc(Br)cc1Cc1cc(Br)cc(Br)c1O [2,2'-Dihydroxy-3,3',5,5'-tetrabromo-diphenylmethane] | 2.8 µM | 45 µM | – |
| CCCCC/C=C\C/C=C\C/C=C\C/C=C\CCCC(=O)O [Arachidonic acid, arachidonic acid] | – | – | EC50 ([1]; Cavia porcellus, read-out: ED50 (concentration-related contraction)): 100 µM; EC50 [5]: 50 µM |
| Oc1c(Cl)cc(Br)cc1Cc1cc(Br)cc(Cl)c1O [2,2'-Dihydroxy-3,3'-dichloro-5,5'-dibromo-diphenylmethane] | 3.8 µM | 28 µM | – |
| CN1CCC(=C2c3ccccc3CC(=O)c3sccc32)CC1 [ketotifen] | – | – | inhibition at 1 µM ([1]; Cavia porcellus, 10^-6 M, 5 μM indomethacin): 25% |
| Oc1c(Cl)cc(Cl)c(O)c1Cc1c(O)c(Cl)cc(Cl)c1O [2,2'6,6'-Tetrahydroxy-3,3',5,5'-tetrachloro-diphenylmethane] | 3.6 µM | 17 µM | – |
| O=C(O)Cc1ccccc1Nc1c(Cl)cccc1Cl [diclofenac] | – | – | skin penetration [4]: inadequate skin penetration |
| Oc1c(Br)cc(Cc2cc(Br)c(O)c(Br)c2)cc1Br [4,4'-Dihydroxy-3,3',5,5'-tetrabromo-diphenylmethane] | 5 µM | 17 µM | – |
| Oc1c(Cl)cc(Cl)c(Cl)c1Cc1c(O)c(Cl)cc(Cl)c1Cl [2,2'-Dihydroxy-3,3',5,5',6,6'-hexachloro-diphenylmethane] | 3.5 µM | 17 µM | – |
| CC(C(=O)O)c1cccc(C(=O)c2ccccc2)c1 (centres unmarked) [ketoprofen] | – | – | skin penetration [4]: inadequate skin penetration |
| NC1=NN(c2cccc(C(F)(F)F)c2)CC1 [BW 755 C] | – | – | inhibition at 50 µM [1, 8]: 50% |
| Oc1cc(Cl)ccc1Oc1ccc(Cl)cc1Cl [triclosan, 2,4,4'-trichloro-2'-hydroxy-diphenyl ether] | 2.4 µM | 23 µM | inhibition of the arachidonic acid-induced contraction ([1]; 10^-6 M triclosan, arachidonic acid 10^-7 -10^3 M (so in the source), 5 μM indomethacin): complete inhibition; relaxation on isolated lung parenchyma strips ([1]; triclosan concentrations of >10^-6 M): pronounced dose-related relaxation |
| Cc1cc(Cl)cc(Cc2ccccc2)c1O [4-Chloro-2-methyl-6-benzylphenol] | 2.5 µM | 30 µM | – |
